Experimental data: patent US12011450B2, “Polyethylene glycol-conjugated glucocorticoid prodrugs and compositions and methods thereof” (Board of Regents of the University of Nebraska, priority 2015, dated 2024)
“Also recorded” adds a separate entry of the source.

Key:
anti-dsDNA IgG = assay: Serum anti-dsDNA IgG level; type: in vivo, mice; settings: 4 and 8 weeks post-treatment initiation
MCP-1, IFN-β, IFN-γ = assay: Serum inflammatory cytokine/chemokine analysis; type: in vivo, mice; settings: end of 2-month treatment
NZB/W F1 mice [1] = settings: mouse, in vivo
NZB/W F1 mice [2] = settings: mouse, in vivo; remark: listed apart in the source
NZB/W F1 mice [3] = settings: mouse, in vivo; remark: listed apart in the source
NZB/W F1 mice kidneys = assay: Histological evaluation of PAS-stained kidney sections; type: in vivo; settings: 2-month treatment end point

- total serum IgG level (NZB/W F1 mice [1]): significant drop of serum IgG value
SMILES: C[C@@H]1C[C@H]2[C@@H]3CCC4=CC(=O)C=C[C@]4(C)[C@@]3(F)[C@@H](O)C[C@]2(C)[C@@]1(O)C(=O)COP(=O)([O-])[O-].[Na+].[Na+] [Dex, dexamethasone 21-phosphate disodium]
- serum anti-dsDNA IgG level (anti-dsDNA IgG): significantly reduce; also recorded: significantly reduced the antibody level
- change in serum MCP-1, IFN-β and IFN-γ values (MCP-1, IFN-β, IFN-γ): did not induce the improvement
- peripheral white blood cell (WBC) counts (NZB/W F1 mice [2]): lower than the saline group, even though there was no significant difference
- adrenal gland mass (NZB/W F1 mice [3]): significantly lower than the PEG-DiDex group
- glomeruli with histological abnormities (NZB/W F1 mice kidneys): 40%
- mice graded as severe glomerulonephritis (scored 3 and 4 points) (NZB/W F1 mice kidneys; 4-point scale): more than 40%
